Experimental data reported in article PMC12408343, “Deep learning reveals antibiotics in the archaeal proteome” (Nature Microbiology, 2025).
Values after ≈ are worked out from the molar mass of the structure shown. Peptide text beside a SMILES is read from it.

Experiments:
[1] = test system: E. coli AIC222 (colistin-resistant, CRE); test: microbe, parasite or virus in culture; design: MIC, E. coli AIC222 - CRE (-): unit not given beside the values; details: Fig 2a source data; Gram-negative, CRE; broth microdilution
Experimental: (§1) Briefly, 10^5 bacterial cells were incubated with serially diluted EPs (0–64 μmol l^−1) at 37 °C. Bacterial growth was assessed by measuring the optical density at 600 nm in a microplate reader at 1 day post-treatment. […] Secondary structure fractions were calculated using the BeStSel server. fH and fβ stand for helical and β fractions, respectively.

A. baumannii ATCC 19606 = test: microbe, parasite or virus in culture
Experimental: as §1

[2] = test system: E. faecium ATCC 700221 (VRE); test: microbe, parasite or virus in culture; details: for MIC E. faecium ATCC 700221 – VRE (+): ATCC 700221, 24 h; for MIC, E. faecium ATCC 700221 - VRE (+): Fig 2a source data, Gram-positive, broth microdilution
Experimental: as §1

A. baumannii = test: Cytoplasmic membrane fluidity, Laurdan generalized polarization; format: cell-based, Acinetobacter baumannii; details: peptides at 100× MIC stock diluted 1:100, 30 min, λex 350, λem 440/490 nm; mean of 3 independent experiments
Excerpt: Fig. 4 Mechanism of action, haemolytic activity and cytotoxicity of antibiotics from the archaeome. […] The fluorescence probe NPN was used to assess membrane permeabilization (a) induced by the tested EPs (Extended Data Fig. 6a). The fluorescence probe DiSC3-5 was used to evaluate membrane depolarization (b) caused by archaeasins (Extended Data Fig. 6b). The shown values represent the relative fluorescence of both probes, with nonlinear fitting compared with the baseline of the untreated control (buffer + bacteria + fluorescence dye) and benchmarked against the antibiotics polymyxin B and levofloxacin. c, Laurdan generalized polarization over time in A. baumannii treated with archaeasins. […] Higher generalized polarization values indicate increased membrane rigidity, whereas lower values reflect increased membrane fluidity. Benzyl alcohol was used as a positive control for membrane fluidization, and untreated cells served as a negative control. […] All experiments were performed in three independent replicates (Extended Data Fig. 7). The protein and peptide structures depicted in panels a and b were created with PyMOL Molecular Graphics System, v.3.0 (Schrödinger).

[3] = test system: human red blood cells (RBCs); details: red cells of human, 4 h
Experimental: To assess the potential toxicity of the synthesized archaeasins, we exposed them to human red blood cells (RBCs), a common method for evaluating the toxicity of antimicrobial agents[20],[26],[27].
To evaluate the release of haemoglobin from human erythrocytes upon treatment of each of the EPs, human RBCs were obtained from Zen-Bio (donor, blood type A^−) obtained from heparin anti-coagulated blood. RBCs were washed with PBS (pH 7.4) 4× by centrifugation at 800g for 10 min. Aliquots of 200-fold-diluted cells (75 μl) were mixed with peptide solution (0.78–100 μmol l^−1; 75 μl), and the mixture was incubated for 4 h at room temperature. After incubation, the plate was centrifuged at 1,300g for 10 min to precipitate cells and debris, and 100 μl of supernatant from each well was transferred to a new 96-well plate for absorbance reading (405 nm) using an automatic plate reader. The percentage of haemolysis was defined by comparison with negative control (samples containing PBS) and positive control (samples containing 1% (v/v) SDS in PBS solution). Haemolysis(%)=100×(absorbance405nmpeptide−absorbance405nmnegativecontrol)/(absorbance405nmpositivecontrol−absorbance405nmnegativecontrol)
All assays were performed in three independent biological replicates as indicated in each figure legend and in the Methods. […] In the skin abscess and thigh infection mouse models, we used six mice per group following established protocols approved by the University Laboratory of Animal Resources of the University of Pennsylvania.
Extended Data Fig. 7 Hemolytic activity of archaeasins. Hemolytic activity was assessed by exposing red blood cells to archaeasins, with lysis determined by absorbance readings after 4 h. The peptides were added to plates and subjected to a two-fold dilution series (ranging from 64 to 4 μmol L^−1) before exposure to the red blood cells. Source data

E. coli ATCC 11775 = test: microbe, parasite or virus in culture; design: MIC, E. coli ATCC 11775 (-): unit not given beside the values
Experimental: as §1

K. pneumoniae ATCC 13883 = test: microbe, parasite or virus in culture
Experimental: as §1

E. coli AIC221 = test: microbe, parasite or virus in culture; design: MIC, E. coli AIC221 (-): unit not given beside the values; details: for MIC E. coli AIC221 (−): AIC221, 24 h; for MIC, E. coli AIC221 (-): Fig 2a source data, Gram-negative, broth microdilution
Experimental: as §1

[4] = Fig 2a source data, Gram-negative, broth microdilution

CC[C@H](C)[C@H](N)C(=O)N[C@@H](CC(C)C)C(=O)NCC(=O)NCC(=O)N[C@@H](CCCCN)C(=O)N[C@@H](CC(C)C)C(=O)N[C@H](C(=O)N[C@@H](CCCCN)C(=O)N[C@@H](CCCCN)C(=O)N[C@@H](CO)C(=O)N[C@@H](CC(C)C)C(=O)N[C@@H](CCCCN)C(=O)N[C@@H](CC(C)C)C(=O)O)[C@@H](C)CC [Archaeasin-21] (H-ILGGKLIKKSLKL-OH; N-terminus and C-terminus assumed)
MIC, E. coli AIC222 - CRE (-) [1]: 64 | MIC, A. baumannii ATCC 19606 (-) (A. baumannii ATCC 19606): 64 | MIC E. faecium ATCC 700221 – VRE (+) [2]: 64 µM (≈ 90.3 µg/mL) | MIC, E. faecium ATCC 700221 - VRE (+) [2]: 64 | Laurdan generalized polarization change of cytoplasmic membrane (A. baumannii): only modest or even decreasing generalized polarization shifts

CC[C@H](C)[C@H](N)C(=O)NCC(=O)N[C@@H](Cc1c[nH]c2ccccc12)C(=O)N[C@H](C(=O)N[C@@H](CO)C(=O)N[C@@H](CC(N)=O)C(=O)N[C@@H](CCCNC(=N)N)C(=O)N[C@H](C(=O)N[C@H](C(=O)N[C@@H](CC(C)C)C(=O)N[C@@H](CCCCN)C(=O)N[C@@H](CC(C)C)C(=O)N[C@@H](CC(C)C)C(=O)N[C@@H](CCCNC(=N)N)C(=O)N[C@@H](Cc1ccccc1)C(=O)N[C@@H](C)C(=O)N[C@@H](CCCCN)C(=O)N[C@@H](CC(N)=O)C(=O)N[C@@H](CCSC)C(=O)N[C@@H](CCCCN)C(=O)O)[C@@H](C)CC)C(C)C)[C@@H](C)CC [Archaeasin-22] (H-IGWISNRVILKLLRFAKNMK-OH; N-terminus and C-terminus assumed)
HC50 (source data of Fig. 4) [3]: 7.224 µmol/L | HC50, peptide concentration leading to 50% RBC lysis [3]: 7 µmol/L | MIC, E. coli AIC222 - CRE (-) [1]: 4 | MIC E. coli ATCC 11775 (−) (E. coli ATCC 11775; ATCC 11775, 24 h): 16 µM (≈ 38.4 µg/mL) | MIC, E. coli ATCC 11775 (-) (E. coli ATCC 11775; [4]): 16 | MIC, A. baumannii ATCC 19606 (-) (A. baumannii ATCC 19606): 1 | MIC K. pneumoniae ATCC 13883 (−) (K. pneumoniae ATCC 13883; ATCC 13883, 24 h): 16 µM (≈ 38.4 µg/mL) | MIC, K. pneumoniae ATCC 13883 (-) (K. pneumoniae ATCC 13883; [4]): 16 | Laurdan generalized polarization change of cytoplasmic membrane (A. baumannii): only modest or even decreasing generalized polarization shifts | MIC E. coli AIC221 (−) (E. coli AIC221): 2 µM (≈ 4.8 µg/mL) | MIC, E. coli AIC221 (-) (E. coli AIC221): 2

CC[C@H](C)[C@H](NC(=O)[C@H](Cc1c[nH]c2ccccc12)NC(=O)[C@H](CCCCN)NC(=O)[C@H](CC(C)C)NC(=O)[C@H](CCCNC(=N)N)NC(=O)[C@H](C)NC(=O)[C@H](CCCNC(=N)N)NC(=O)[C@H](C)NC(=O)[C@H](CC(C)C)NC(=O)[C@H](Cc1c[nH]c2ccccc12)NC(=O)[C@@H](N)CC(C)C)C(=O)N[C@H](C(=O)O)[C@@H](C)O [Archaeasin-57] (H-LWLARARLKWIT-OH; N-terminus and C-terminus assumed)
HC50 (source data of Fig. 4) [3]: 203.9 µmol/L | MIC, E. coli AIC222 - CRE (-) [1]: 64 | MIC, A. baumannii ATCC 19606 (-) (A. baumannii ATCC 19606): 16 | MIC E. faecium ATCC 700221 – VRE (+) [2]: 8 µM (≈ 12.2 µg/mL) | MIC, E. faecium ATCC 700221 - VRE (+) [2]: 8 | Laurdan generalized polarization change of cytoplasmic membrane (A. baumannii): pronounced increases in generalized polarization values over time | MIC E. coli AIC221 (−) (E. coli AIC221): 64 µM (≈ 97.7 µg/mL) | MIC, E. coli AIC221 (-) (E. coli AIC221): 64
